Experiments:
[1] = molecular target: Non-receptor tyrosine-protein kinase TYK2 (Homo sapiens) (UniProt P29597); details: Compound concentration 100.0 nM
[2] = molecular target: Beta-2 adrenergic receptor (Homo sapiens) (UniProt P07550); details: Compound concentration 10.0 uM
[3] = molecular target: Dual specificity testis-specific protein kinase 1 (Homo sapiens) (UniProt Q15569); details: Compound concentration 100.0 nM
[4] = molecular target: Mitogen-activated protein kinase kinase kinase 11 (Homo sapiens) (UniProt Q16584); details: Compound concentration 100.0 nM
[5] = molecular target: Phosphorylase b kinase regulatory subunit alpha, liver isoform (Homo sapiens) (UniProt P46019); details: Compound concentration 100.0 nM
[6] = molecular target: Activin receptor type-1-like (Homo sapiens) (UniProt P37023); details: Compound concentration 100.0 nM
Chain of Activin receptor type-1-like (Homo sapiens) (P37023 whole entry): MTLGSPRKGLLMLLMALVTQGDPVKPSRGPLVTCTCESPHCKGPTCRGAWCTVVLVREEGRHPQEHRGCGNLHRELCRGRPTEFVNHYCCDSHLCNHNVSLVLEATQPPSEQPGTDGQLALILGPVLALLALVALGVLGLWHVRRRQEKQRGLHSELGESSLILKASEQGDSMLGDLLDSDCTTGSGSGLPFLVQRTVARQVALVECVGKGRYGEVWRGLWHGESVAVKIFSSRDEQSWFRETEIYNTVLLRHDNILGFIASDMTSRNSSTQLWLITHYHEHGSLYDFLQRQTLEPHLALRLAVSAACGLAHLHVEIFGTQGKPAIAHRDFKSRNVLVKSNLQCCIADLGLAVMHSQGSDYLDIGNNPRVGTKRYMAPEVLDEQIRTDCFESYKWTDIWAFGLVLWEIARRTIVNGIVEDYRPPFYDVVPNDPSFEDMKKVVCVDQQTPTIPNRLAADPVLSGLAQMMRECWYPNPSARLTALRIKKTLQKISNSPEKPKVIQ

[7] = molecular target: 5-hydroxytryptamine receptor 7 (Homo sapiens, UniProt P34969); details: Compound concentration 10.0 uM
[8] = molecular target: MAP kinase-interacting serine/threonine-protein kinase 1 (Homo sapiens) (UniProt Q9BUB5); details: Compound concentration 100.0 nM
[9] = molecular target: SRSF protein kinase 2 (Homo sapiens) (UniProt P78362); details: Compound concentration 100.0 nM
[10] = molecular target: Tyrosine-protein kinase ZAP-70 (Homo sapiens) (UniProt P43403); details: Compound concentration 100.0 nM
[11] = molecular target: Mitogen-activated protein kinase kinase kinase 10 (Homo sapiens) (UniProt Q02779); details: Compound concentration 100.0 nM
Chain of Mitogen-activated protein kinase kinase kinase 10 (Homo sapiens) (Q02779 whole entry, looked up): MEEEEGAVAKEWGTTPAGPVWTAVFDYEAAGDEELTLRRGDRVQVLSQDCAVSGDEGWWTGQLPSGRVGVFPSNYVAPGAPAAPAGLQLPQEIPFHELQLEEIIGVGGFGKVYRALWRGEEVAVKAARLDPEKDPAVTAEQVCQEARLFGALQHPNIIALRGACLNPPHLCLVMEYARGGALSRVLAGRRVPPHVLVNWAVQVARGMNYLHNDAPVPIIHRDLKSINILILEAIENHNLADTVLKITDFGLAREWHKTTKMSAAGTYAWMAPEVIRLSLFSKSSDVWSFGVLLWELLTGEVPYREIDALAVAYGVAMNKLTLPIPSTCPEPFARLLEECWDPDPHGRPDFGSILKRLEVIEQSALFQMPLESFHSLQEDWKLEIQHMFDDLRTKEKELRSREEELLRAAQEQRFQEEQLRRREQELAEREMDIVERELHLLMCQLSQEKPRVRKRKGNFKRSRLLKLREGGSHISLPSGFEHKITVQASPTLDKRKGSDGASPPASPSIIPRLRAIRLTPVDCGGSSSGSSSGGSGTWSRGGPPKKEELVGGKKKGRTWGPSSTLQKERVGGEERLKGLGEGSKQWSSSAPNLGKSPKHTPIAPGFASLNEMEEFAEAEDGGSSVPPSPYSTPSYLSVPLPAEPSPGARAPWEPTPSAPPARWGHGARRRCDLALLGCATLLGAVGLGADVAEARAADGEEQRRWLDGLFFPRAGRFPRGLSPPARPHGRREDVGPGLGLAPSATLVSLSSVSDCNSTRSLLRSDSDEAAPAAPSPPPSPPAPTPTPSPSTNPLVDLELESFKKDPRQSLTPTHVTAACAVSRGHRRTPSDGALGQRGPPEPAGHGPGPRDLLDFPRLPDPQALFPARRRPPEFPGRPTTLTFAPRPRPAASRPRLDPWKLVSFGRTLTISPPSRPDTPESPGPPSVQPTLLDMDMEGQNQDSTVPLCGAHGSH

[12] = test system: Tyrosine-protein kinase ABL1 (Homo sapiens), P00519 [T315I]; details: Compound concentration 100.0 nM
[13] = molecular target: Serine/threonine-protein kinase LATS2 (Homo sapiens) (UniProt Q9NRM7); details: Compound concentration 100.0 nM
[14] = molecular target: Serine/threonine-protein kinase Nek2 (Homo sapiens) (UniProt P51955); details: Compound concentration 100.0 nM
[15] = molecular target: Tyrosine-protein kinase ABL2 (Homo sapiens) (UniProt P42684); details: Compound concentration 100.0 nM
[16] = molecular target: Fibroblast growth factor receptor 1 (Homo sapiens) (UniProt P11362); details: Compound concentration 100.0 nM
[17] = molecular target: Non-receptor tyrosine-protein kinase TYK2 (Homo sapiens) (UniProt P29597); details: Compound concentration 100.0 nM; remark: listed apart in the source
[18] = molecular target: Serine/threonine-protein kinase pim-2 (Homo sapiens) (UniProt Q9P1W9); details: Compound concentration 100.0 nM
[19] = test system: Phosphatidylinositol 4,5-bisphosphate 3-kinase catalytic subunit alpha isoform (Homo sapiens), P42336 [E542K]; details: Compound concentration 100.0 nM
[20] = molecular target: Dual specificity mitogen-activated protein kinase kinase 7 (Homo sapiens) (UniProt O14733); details: Compound concentration 100.0 nM
[21] = molecular target: Histamine H4 receptor (Homo sapiens) (UniProt Q9H3N8); details: Compound concentration 10.0 uM
Chain of Histamine H4 receptor (Homo sapiens) (Q9H3N8 whole entry): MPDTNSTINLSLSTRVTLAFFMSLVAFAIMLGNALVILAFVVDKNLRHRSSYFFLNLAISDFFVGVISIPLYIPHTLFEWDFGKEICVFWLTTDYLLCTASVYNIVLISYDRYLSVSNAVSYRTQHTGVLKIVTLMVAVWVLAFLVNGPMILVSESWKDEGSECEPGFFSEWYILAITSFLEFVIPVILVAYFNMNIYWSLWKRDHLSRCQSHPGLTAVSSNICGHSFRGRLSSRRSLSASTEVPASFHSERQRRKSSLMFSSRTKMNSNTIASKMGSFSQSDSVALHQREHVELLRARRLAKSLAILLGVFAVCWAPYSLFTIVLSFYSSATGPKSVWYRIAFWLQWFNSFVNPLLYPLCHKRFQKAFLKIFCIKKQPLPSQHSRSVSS

Rattus norvegicus = organism: Rattus norvegicus; details: Compound concentration 10.0 uM
[22] = molecular target: Phosphatidylinositol 5-phosphate 4-kinase type-2 beta (Homo sapiens) (UniProt P78356); details: Compound concentration 100.0 nM
Chain of Phosphatidylinositol 5-phosphate 4-kinase type-2 beta (Homo sapiens) (P78356 whole entry): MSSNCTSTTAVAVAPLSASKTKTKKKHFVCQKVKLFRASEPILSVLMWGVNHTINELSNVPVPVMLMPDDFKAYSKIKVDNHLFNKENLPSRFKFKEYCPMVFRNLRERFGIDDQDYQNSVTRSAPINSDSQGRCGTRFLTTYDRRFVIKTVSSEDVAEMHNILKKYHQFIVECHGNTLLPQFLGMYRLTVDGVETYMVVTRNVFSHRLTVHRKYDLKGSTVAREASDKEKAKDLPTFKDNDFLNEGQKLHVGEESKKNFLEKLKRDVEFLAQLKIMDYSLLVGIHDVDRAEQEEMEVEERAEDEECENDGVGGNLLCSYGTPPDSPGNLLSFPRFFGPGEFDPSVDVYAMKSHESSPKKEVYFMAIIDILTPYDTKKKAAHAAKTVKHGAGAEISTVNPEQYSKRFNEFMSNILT

[23] = test system: Mast/stem cell growth factor receptor Kit (Homo sapiens), P10721 [V559D,T670I]; details: Compound concentration 100.0 nM
[24] = molecular target: Vascular endothelial growth factor receptor 1 (Homo sapiens) (UniProt P17948); details: Compound concentration 100.0 nM
[25] = molecular target: T1, Muscarinic acetylcholine receptor M4 (Homo sapiens) (UniProt P08173); details: Compound concentration 10.0 uM
T1 sequence (whole entry): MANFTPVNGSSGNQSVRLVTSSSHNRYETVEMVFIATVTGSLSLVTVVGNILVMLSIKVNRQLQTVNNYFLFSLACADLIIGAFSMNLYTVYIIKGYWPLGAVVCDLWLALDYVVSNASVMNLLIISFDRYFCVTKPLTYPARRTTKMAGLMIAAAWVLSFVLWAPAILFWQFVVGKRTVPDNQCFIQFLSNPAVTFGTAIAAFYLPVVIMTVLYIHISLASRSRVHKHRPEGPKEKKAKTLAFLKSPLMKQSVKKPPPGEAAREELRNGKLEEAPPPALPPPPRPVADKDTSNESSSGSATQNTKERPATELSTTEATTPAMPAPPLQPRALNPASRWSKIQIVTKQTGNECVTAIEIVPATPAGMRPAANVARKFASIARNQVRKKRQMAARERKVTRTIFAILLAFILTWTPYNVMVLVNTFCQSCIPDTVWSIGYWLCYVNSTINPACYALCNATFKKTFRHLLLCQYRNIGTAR

[26] = molecular target: Casein kinase I isoform alpha (Homo sapiens) (UniProt P48729); details: Compound concentration 100.0 nM
[27] = test system: Tyrosine-protein kinase ABL1 (Homo sapiens), P00519 [H396P]; details: Compound concentration 100.0 nM
[28] = molecular target: Tyrosine-protein kinase JAK1 (Homo sapiens) (UniProt P23458); details: Compound concentration 100.0 nM
[29] = molecular target: Serine/threonine-protein kinase Sgk3 (Homo sapiens) (UniProt Q96BR1); details: Compound concentration 100.0 nM
[30] = molecular target: Cyclin-dependent kinase 4 (Homo sapiens) (UniProt P11802); details: Compound concentration 100.0 nM
Chain of Cyclin-dependent kinase 4 (Homo sapiens) (P11802 whole entry): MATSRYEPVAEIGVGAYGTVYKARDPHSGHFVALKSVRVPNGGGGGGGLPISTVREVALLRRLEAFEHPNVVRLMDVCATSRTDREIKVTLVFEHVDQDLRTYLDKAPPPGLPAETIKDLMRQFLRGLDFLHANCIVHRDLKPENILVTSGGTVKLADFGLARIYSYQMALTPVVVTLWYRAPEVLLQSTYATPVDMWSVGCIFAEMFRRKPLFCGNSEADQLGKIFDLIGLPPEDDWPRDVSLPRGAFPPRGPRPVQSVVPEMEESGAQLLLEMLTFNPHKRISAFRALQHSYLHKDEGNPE

[31] = molecular target: Tyrosine-protein kinase Yes (Homo sapiens) (UniProt P07947); details: Compound concentration 100.0 nM
[32] = molecular target: Megakaryocyte-associated tyrosine-protein kinase (Homo sapiens) (UniProt P42679); details: Compound concentration 100.0 nM
[33] = molecular target: Dual specificity calcium/calmodulin-dependent 3',5'-cyclic nucleotide phosphodiesterase 1A (Homo sapiens, UniProt P54750); test: Biochemical assay (PDE1A)
[34] = molecular target: Proto-oncogene tyrosine-protein kinase receptor Ret (Homo sapiens) (UniProt P07949); details: Compound concentration 100.0 nM
Chain of Proto-oncogene tyrosine-protein kinase receptor Ret (Homo sapiens) (P07949 whole entry): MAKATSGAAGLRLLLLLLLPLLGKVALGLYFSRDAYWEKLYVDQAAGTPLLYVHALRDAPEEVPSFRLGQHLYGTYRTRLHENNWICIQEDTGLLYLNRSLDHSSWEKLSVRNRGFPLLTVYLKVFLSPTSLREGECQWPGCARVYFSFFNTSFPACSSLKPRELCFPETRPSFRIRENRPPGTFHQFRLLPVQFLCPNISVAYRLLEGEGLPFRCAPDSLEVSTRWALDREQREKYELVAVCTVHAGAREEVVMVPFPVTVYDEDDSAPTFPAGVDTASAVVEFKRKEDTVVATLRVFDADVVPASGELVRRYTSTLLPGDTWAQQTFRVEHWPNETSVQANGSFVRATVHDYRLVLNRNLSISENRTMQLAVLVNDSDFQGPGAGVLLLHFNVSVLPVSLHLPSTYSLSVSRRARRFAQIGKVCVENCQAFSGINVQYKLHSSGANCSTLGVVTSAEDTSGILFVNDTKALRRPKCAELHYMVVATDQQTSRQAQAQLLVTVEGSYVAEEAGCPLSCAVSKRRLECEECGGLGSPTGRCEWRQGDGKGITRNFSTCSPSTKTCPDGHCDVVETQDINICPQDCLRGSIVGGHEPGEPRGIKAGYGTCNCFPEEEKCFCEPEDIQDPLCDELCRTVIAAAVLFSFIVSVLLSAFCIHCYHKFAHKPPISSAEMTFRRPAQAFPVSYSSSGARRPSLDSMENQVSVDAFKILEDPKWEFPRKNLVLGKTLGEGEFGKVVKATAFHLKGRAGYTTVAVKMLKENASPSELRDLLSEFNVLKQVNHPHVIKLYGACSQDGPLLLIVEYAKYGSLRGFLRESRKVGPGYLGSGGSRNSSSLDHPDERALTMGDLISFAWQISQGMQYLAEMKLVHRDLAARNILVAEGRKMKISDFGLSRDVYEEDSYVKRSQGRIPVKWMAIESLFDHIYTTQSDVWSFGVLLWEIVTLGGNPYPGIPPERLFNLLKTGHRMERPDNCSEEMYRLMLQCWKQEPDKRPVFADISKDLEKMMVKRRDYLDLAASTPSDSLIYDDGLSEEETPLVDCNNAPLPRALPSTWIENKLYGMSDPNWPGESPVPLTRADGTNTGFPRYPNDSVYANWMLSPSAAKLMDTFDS

[35] = test system: Proto-oncogene tyrosine-protein kinase receptor Ret (Homo sapiens), P07949 [M918T]; details: Compound concentration 100.0 nM
Chain of Proto-oncogene tyrosine-protein kinase receptor Ret (Homo sapiens), P07949 [M918T] (P07949 whole entry M918T): as the sequence (P07949 whole entry) above, with M918T counted along it

[36] = molecular target: Calcium/calmodulin-dependent protein kinase kinase 2 (Homo sapiens) (UniProt Q96RR4); details: Compound concentration 100.0 nM
[37] = molecular target: Calcium/calmodulin-dependent protein kinase type 1G (Homo sapiens) (UniProt Q96NX5); details: Compound concentration 100.0 nM
[38] = molecular target: Mitogen-activated protein kinase kinase kinase 4 (Homo sapiens) (UniProt Q9Y6R4); details: Compound concentration 100.0 nM

Chain of Non-receptor tyrosine-protein kinase TYK2 (Homo sapiens) (P29597 whole entry): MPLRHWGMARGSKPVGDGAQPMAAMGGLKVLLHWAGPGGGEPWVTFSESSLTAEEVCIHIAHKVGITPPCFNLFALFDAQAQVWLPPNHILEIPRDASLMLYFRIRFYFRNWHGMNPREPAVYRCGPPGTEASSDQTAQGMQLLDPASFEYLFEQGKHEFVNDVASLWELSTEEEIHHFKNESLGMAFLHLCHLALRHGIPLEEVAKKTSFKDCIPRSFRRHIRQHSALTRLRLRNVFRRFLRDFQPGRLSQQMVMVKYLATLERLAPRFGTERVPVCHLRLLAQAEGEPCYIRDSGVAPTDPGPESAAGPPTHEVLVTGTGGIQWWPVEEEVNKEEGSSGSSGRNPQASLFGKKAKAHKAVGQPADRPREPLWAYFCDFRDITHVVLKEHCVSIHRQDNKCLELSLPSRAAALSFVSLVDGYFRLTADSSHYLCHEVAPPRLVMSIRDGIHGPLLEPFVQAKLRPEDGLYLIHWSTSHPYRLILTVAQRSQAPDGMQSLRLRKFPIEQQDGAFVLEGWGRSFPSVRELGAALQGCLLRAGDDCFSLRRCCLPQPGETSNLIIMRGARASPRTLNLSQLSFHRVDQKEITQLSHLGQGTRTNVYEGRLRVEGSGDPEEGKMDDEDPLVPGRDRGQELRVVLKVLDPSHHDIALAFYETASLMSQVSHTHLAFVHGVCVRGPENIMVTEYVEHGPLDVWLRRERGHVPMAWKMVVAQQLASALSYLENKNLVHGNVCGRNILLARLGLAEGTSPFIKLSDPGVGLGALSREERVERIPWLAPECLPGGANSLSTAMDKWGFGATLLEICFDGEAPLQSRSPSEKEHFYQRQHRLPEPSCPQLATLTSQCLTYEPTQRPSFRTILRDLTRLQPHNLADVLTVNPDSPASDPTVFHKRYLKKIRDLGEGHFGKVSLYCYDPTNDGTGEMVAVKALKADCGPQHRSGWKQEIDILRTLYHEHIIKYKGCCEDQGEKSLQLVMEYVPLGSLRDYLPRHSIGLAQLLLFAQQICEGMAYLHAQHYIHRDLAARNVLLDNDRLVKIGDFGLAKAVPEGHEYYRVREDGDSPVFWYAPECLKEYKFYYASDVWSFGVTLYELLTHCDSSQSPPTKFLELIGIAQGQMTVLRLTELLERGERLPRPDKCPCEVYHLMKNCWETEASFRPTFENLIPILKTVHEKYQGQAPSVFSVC

| Structure (SMILES) | residual activity [1] | inhibition [2] | residual activity [3] | residual activity [4] | residual activity [5] | residual activity [6] | inhibition [7] | residual activity [8] | residual activity [9] | residual activity [10] | residual activity [11] | residual activity [12] | residual activity [13] | residual activity [14] | residual activity [15] | residual activity [16] | residual activity [17] | residual activity [18] | residual activity [19] | residual activity [20] | further results |
| --- | --- | --- | --- | --- | --- | --- | --- | --- | --- | --- | --- | --- | --- | --- | --- | --- | --- | --- | --- | --- | --- |
| CC(C)CC(=O)N1CCc2nc(-c3ccc(Br)cc3)nc(N(C)Cc3ccccc3)c2C1 [THPP-1-NC] | 100% | 5.63% | 100% | 100% | 100% | 99% | 64.5% | 69% | 100% | 91% | 96% | 100% | 94% | 100% | 100% | 100% | 100% | 100% | 100% | 79% | inhibition [21]: -7.78%; inhibition (Rattus norvegicus): 41%; residual activity [22]: 61%; residual activity [23]: 95%; residual activity [24]: 100%; inhibition [25]: 3.58%; residual activity [26]: 73%; residual activity [27]: 68%; residual activity [28]: 100%; residual activity [29]: 100%; residual activity [30]: 93%; residual activity [31]: 100%; residual activity [32]: 100%; Ki [33]: > 58.3 µM (not active); residual activity [34]: 68%; residual activity [35]: 100%; residual activity [36]: 100%; residual activity [37]: 100%; residual activity [38]: 100% |
| COCCOc1nc(-c2ccc(Cl)nc2)nc2c1CN(C(=O)c1ncn3ccccc13)CC2 [THPP-1] | 100% | -0.65% | 100% | 100% | 100% | 100% | 42.3% | 77% | 100% | 95% | 100% | 75% | 68% | 100% | 100% | 100% | 100% | 98% | 87% | 95% | inhibition [21]: -6.39%; inhibition (Rattus norvegicus): 26.1%; residual activity [22]: 59%; residual activity [23]: 100%; residual activity [24]: 87%; inhibition [25]: 2%; residual activity [26]: 98%; residual activity [27]: 70%; residual activity [28]: 100%; residual activity [29]: 100%; residual activity [30]: 100%; residual activity [31]: 100%; residual activity [32]: 100%; Ki [33]: > 50 µM (not active); residual activity [34]: 88%; residual activity [35]: 90%; residual activity [36]: 100%; residual activity [37]: 100%; residual activity [38]: 100% |
